The target of one assay is T1, PI3K α (Homo sapiens, UniProt P42336).
T1 construct: Full length p110 subunits of PI3K α, β and δ, N-terminally labeled with polyHis tag; polyHis (N); made in house; host or cells: Sf9 insect cells (baculovirus)
Description: In vitro PI3 kinase enzyme assay (alpha), ATP loss, bioluminescence.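 Also: purified p110α/p85 heterodimer acting on PtdIns(4,5)P2 at room temperature, remaining ATP read by luminescence, inhibition scaled between compound-free wells with and without enzyme.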 The assay is classed as biochemical. Conditions: read-out: PI3Kα ATP loss IC50.

A further assay has as its target T2, PI3K β (Homo sapiens, UniProt P42338).
T2 construct: Full length p110 subunits of PI3K α, β and δ, N-terminally labeled with polyHis tag; polyHis (N); made in house; host or cells: Sf9 insect cells (baculovirus)
In words: In vitro PI3 kinase enzyme assay (beta), ATP loss, bioluminescence.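 Also: purified p110β/p85 heterodimer with PtdIns(4,5)P2 as acceptor, incubated at room temperature, leftover ATP read by luminescence, inhibition scaled to compound-free wells with and without enzyme.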 Format: biochemical. Conditions: read-out: PI3Kβ ATP loss IC50.

The test system of assay [1] is phosphorylation of Serine 473 in Akt, HCT 116 human colon carcinoma cells. Description: Cell-based phospho-AKT Ser473 assay (MSD sandwich immunoassay, IGF-1 stimulated). The following applies: Homo sapiens, HCT-116, HCT 116 cells; read-out: HCT 116 pAKT IC50. The procedure, abridged: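 HCT116 cells, 16,000/well and plated overnight, were pre-treated with serially diluted compound for 2 h at 37 °C, then stimulated with IGF-1 at 100 ng/ml for 15 min. Lysates were assayed for Akt pSer473 by MSD sandwich electrochemiluminescence, and IC50 was derived from dose-response data.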

T1 sequence (P42336 whole entry, species assumed): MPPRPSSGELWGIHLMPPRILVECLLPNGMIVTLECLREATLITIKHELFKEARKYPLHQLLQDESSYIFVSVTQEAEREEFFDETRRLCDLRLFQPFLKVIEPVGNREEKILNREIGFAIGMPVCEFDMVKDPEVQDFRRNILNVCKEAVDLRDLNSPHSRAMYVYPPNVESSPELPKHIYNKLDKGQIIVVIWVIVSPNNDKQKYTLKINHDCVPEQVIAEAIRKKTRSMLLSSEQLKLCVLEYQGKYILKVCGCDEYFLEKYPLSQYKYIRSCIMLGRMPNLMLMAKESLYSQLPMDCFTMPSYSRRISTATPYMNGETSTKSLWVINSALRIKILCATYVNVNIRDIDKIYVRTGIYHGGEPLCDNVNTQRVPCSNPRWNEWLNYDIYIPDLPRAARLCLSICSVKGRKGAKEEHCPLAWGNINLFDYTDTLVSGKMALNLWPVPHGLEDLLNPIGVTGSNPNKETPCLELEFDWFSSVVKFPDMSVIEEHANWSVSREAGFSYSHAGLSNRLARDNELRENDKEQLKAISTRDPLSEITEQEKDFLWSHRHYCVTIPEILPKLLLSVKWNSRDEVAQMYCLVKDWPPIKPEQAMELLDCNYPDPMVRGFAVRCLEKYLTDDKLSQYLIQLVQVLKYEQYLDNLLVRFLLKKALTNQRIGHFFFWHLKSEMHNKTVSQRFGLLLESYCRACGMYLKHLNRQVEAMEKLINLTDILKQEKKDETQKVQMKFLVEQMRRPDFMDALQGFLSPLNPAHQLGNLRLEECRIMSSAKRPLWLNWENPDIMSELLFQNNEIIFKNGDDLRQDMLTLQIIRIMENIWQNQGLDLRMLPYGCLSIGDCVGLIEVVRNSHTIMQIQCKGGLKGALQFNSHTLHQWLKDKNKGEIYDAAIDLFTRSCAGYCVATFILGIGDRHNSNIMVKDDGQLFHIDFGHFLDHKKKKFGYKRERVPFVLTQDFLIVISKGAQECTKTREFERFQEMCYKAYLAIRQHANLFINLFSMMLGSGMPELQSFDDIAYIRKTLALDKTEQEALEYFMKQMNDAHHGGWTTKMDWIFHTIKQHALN
T1 sequence (P27986 whole entry partner, species assumed): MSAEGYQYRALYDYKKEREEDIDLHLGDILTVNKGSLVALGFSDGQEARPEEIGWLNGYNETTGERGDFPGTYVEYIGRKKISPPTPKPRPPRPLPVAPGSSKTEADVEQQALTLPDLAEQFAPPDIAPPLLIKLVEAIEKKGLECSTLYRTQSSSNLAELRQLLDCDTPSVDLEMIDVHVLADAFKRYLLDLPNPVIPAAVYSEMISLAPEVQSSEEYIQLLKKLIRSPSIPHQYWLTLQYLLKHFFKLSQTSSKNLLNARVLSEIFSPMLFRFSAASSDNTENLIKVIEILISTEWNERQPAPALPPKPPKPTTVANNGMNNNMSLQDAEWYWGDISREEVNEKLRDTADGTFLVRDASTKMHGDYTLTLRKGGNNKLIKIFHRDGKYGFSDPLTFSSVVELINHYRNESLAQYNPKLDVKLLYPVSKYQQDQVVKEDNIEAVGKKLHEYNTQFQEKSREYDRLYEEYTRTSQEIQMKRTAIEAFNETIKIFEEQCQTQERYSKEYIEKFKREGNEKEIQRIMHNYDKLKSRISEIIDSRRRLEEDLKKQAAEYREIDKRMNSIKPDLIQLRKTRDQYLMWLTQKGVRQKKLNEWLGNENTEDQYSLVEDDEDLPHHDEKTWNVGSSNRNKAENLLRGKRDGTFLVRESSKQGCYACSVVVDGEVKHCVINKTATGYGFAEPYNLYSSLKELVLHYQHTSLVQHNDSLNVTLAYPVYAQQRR
T2 sequence (P42338 whole entry): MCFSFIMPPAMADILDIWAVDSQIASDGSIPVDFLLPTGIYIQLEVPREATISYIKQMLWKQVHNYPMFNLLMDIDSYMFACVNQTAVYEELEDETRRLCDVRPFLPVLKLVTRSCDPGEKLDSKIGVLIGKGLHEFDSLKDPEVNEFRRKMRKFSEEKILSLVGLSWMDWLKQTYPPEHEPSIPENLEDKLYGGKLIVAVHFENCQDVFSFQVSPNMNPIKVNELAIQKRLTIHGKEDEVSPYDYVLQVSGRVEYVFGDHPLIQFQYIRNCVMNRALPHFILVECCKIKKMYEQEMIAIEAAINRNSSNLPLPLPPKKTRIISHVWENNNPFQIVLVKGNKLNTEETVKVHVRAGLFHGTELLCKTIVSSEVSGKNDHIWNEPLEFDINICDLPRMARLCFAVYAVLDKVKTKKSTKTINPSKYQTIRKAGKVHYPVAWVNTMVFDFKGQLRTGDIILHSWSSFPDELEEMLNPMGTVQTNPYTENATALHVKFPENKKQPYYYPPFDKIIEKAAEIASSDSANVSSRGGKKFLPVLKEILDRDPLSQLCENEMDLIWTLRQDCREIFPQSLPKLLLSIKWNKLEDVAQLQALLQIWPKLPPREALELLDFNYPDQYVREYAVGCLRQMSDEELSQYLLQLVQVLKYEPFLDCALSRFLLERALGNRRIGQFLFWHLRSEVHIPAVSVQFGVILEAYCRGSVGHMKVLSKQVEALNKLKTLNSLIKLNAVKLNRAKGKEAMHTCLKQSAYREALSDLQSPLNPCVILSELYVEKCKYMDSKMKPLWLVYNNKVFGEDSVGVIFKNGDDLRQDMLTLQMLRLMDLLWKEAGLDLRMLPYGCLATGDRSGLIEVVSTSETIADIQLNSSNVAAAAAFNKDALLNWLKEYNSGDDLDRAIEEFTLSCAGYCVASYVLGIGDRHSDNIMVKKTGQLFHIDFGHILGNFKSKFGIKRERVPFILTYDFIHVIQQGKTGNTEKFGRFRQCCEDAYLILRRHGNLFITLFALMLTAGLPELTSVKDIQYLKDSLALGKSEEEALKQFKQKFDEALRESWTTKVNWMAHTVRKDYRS
T2 sequence (P27986 whole entry partner): as the sequence (P27986 whole entry partner, species assumed) above

Consider `CNc1nc2ccc(-c3cnc(Cl)c(NS(=O)(=O)c4c(Cl)cccc4Cl)c3)cc2s1` [Example 319, 2,6-dichloro-N-(2-chloro-5-(2-(methylamino)-1,3-benzothiazol-6-yl)-3-pyridinyl)benzenesulfonamide], for which the IC50 at PI3K α turned out to be 9.2 nM; at PI3K β, 36.5 nM; in assay [1], 474 nM.
Turning to `CC(=O)Nc1nc2ccc(-c3cncc(NS(=O)(=O)c4ccccc4)c3)cc2s1` [Example 202, N-(6-(5-(phenylsulfonamido)pyridin-3-yl)benzo[d]thiazol-2-yl)acetamide], the IC50 is 5.6 nM at PI3K α, 31.7 nM on PI3K β and 271 nM in assay [1].
On to `COCC(=O)Nc1nc2ccc(-c3cnc(Cl)c(NC(C)C)c3)cc2s1` [Example 144, N-(6-(6-chloro-5-((1-methylethyl)amino)-3-pyridinyl)-1,3-benzothiazol-2-yl)-2-methoxyacetamide], for which the values for the IC50 (on PI3K α; on PI3K β; in assay [1]) were 112 nM, 1570 nM and 723 nM, respectively.
As to `CC(=O)Nc1nc2ccc(-c3cnc(C)c(NS(=O)(=O)c4ccc(C(C)(C)C)cc4)c3)cc2s1` [Example 114, N-(6-(5-(((4-tert-butylphenyl)sulfonyl)amino)-6-methyl-3-pyridinyl)-1,3-benzothiazol-2-yl)acetamide], the IC50 on PI3K α stood at 7 nM; at PI3K β it was 8.9 nM; in assay [1], 14.4 nM.
Take `CC(=O)Nc1nc2ccc(-c3cnc(Cl)c(NS(=O)(=O)c4ccc(C(C)=O)cc4)c3)cc2s1` [Example 119, N-(6-(5-(((4-acetylphenyl)sulfonyl)amino)-6-chloro-3-pyridinyl)-1,3-benzothiazol-2-yl)acetamide]: the figures for the IC50 (on PI3K α; at PI3K β; in assay [1]) were 12.3 nM, 13.5 nM and 34.5 nM, respectively.
For `CC(=O)Nc1nc2ccc(-c3ccnc(Sc4cccc(C)c4)n3)cc2s1` [Example 35, N-(6-(2-((3-methylphenyl)sulfanyl)-4-pyrimidinyl)-1,3-benzothiazol-2-yl)acetamide], the IC50 on PI3K α stood at 57.6 nM; on PI3K β, 1060 nM; in assay [1], 3580 nM.
As for `CC(=O)Nc1nc2ccc(-c3cncc(NS(=O)(=O)c4cccc(F)c4)c3)cc2s1` [Example 199, N-(6-(5-(3-fluorophenylsulfonamido)pyridin-3-yl)benzo[d]thiazol-2-yl)acetamide], the IC50 on PI3K α worked out at 3.8 nM; at PI3K β, 10.3 nM; in assay [1] it was 75 nM.
In the case of `CC(=O)Nc1nc2ccc(-c3cccc(N(C)S(=O)(=O)c4ccccc4)n3)cc2s1` [Example 75, N-(6-(6-(methyl(phenylsulfonyl)amino)-2-pyridinyl)-1,3-benzothiazol-2-yl)acetamide], the results for the half-inhibitory concentration (IC50) (at PI3K α; on PI3K β; in assay [1]) were 82.5 nM, 338 nM and 221 nM, respectively.
As for `CC(=O)Nc1nc2ccc(-c3ccnc(Sc4ccc(C)cc4)n3)cc2s1` [Example 36, N-(6-(2-((4-methylphenyl)sulfanyl)-4-pyrimidinyl)-1,3-benzothiazol-2-yl)acetamide], the IC50 on PI3K α came to 59.5 nM; at PI3K β, 554 nM; in assay [1], 2320 nM.
With `CC(C)Nc1cc(-c2ccc3nc(N)sc3c2)cnc1Cl` [Example 155, 6-(6-chloro-5-((1-methylethyl)amino)-3-pyridinyl)-1,3-benzothiazol-2-amine], the IC50 at PI3K α came to 509 nM; on PI3K β it was 1150 nM; in assay [1] it was 1990 nM.
Turning to `CC(=O)Nc1nc2ccc(-c3cncc(N(C)S(=O)(=O)c4ccc(C)cc4)n3)cc2s1` [Example 127, N-(6-(6-(methyl((4-methylphenyl)sulfonyl)amino)-2-pyrazinyl)-1,3-benzothiazol-2-yl)acetamide], the IC50 at PI3K α was 27.8 nM; on PI3K β, 31.6 nM; in assay [1], 58.1 nM.
Consider `CN(C)c1cc(-c2ccc3nc(NC(=O)COc4ccccc4)sc3c2)cnc1Cl` [Example 272, N-(6-(6-chloro-5-(dimethylamino)pyridin-3-yl)benzo[d]thiazol-2-yl)-2-phenoxyacetamide], for which the IC50 was 58.9 nM on PI3K α, 1450 nM at PI3K β and > 5000 nM in assay [1].
Regarding `CC(=O)Nc1nc2ccc(-c3cnc(Cl)c(N(C)C)c3)cc2s1` [Example 269, N-(6-(6-Chloro-5-(dimethylamino)pyridin-3-yl)benzo[d]thiazol-2-yl)acetamide], the IC50 on PI3K α amounted to 19.9 nM; on PI3K β, 221 nM; in assay [1], 56.7 nM.
`CC(=O)Nc1nc2ccc(-c3ccnc(OCc4ccccc4)n3)cc2s1` [Example 3, N-(6-(2-(benzyloxy)-4-pyrimidinyl)-1,3-benzothiazol-2-yl)acetamide]: the IC50 on PI3K α turned out to be 95.6 nM; at PI3K β, 240 nM; in assay [1], 3510 nM.
Regarding `CC(=O)Nc1nc2ccc(-c3ccnc(N(C)S(=O)(=O)c4ccc(C)c(C)c4)n3)cc2s1` [Example 210, N-(6-(2-(N,3,4-trimethylphenylsulfonamido)pyrimidin-4-yl)benzo[d]thiazol-2-yl)acetamide], the IC50 at PI3K α is 14.7 nM; at PI3K β, 39.1 nM; in assay [1] it was 59.3 nM.

For orientation: IC50 means the concentration that inhibits the measured activity by half.

The values above are taken from patent US7928140B2, “Benzothiazole PI3 kinase modulators for cancer treatment” (Amgen Inc., priority 2007, dated 2011).
